The values below come from PMC6271944 (Molecules, 2014).

Data set [1] has as its target T1, CYP1A2 (Homo sapiens, UniProt P05177).
T1 construct: Pooled human liver microsomes (HLM, LOT 32556) were purchased from BD Gentest Corporation; tissue BD Gentest Corporation LOT 32556; host or cells: pooled human liver microsomes
T1 sequence (P05177 1-516): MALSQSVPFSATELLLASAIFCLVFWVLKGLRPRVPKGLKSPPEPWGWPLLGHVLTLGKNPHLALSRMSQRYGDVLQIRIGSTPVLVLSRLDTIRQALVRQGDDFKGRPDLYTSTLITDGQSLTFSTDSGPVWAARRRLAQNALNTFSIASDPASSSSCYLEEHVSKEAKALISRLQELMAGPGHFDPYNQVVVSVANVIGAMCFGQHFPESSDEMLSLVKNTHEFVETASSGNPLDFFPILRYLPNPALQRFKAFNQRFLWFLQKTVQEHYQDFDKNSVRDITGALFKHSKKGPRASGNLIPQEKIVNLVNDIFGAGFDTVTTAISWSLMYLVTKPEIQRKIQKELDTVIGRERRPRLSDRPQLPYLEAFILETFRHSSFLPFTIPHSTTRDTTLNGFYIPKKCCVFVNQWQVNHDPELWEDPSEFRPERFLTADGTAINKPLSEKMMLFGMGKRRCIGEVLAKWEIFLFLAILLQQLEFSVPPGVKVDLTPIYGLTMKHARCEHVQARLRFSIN
The data set is described as follows: CYP inhibition in human liver microsomes, substrate cocktail, LC-MS/MS (phenacetin). The class given is in vitro ADME. Conditions: metabolite acetaminophen, read-out: IC50 for HLM, CYP1A2. The text has this:
(§1) Positive controls (furafyline for CYP1A2, montelukast for CYP2C8, sulfaphenazole for CYP2C9, S-(+)-N-3-benzylnirvanol for CYP2C19, quinidine for CYP2D6, ketoconazole for CYP3A4) and specific substrates (phenacetin for CYP1A2, paclitaxel for CYP2C8, diclofenac for CYP2C9, S-mephenytoin for CYP2C19, dextromethorphan for CYP2D6, midazolam for CYP3A4) are consistent with our previous papers. The substrates were used at concentrations approximately equal to their respective Michaelis-Menten constant (Km) values: 10 μM phenacetin, 5 μM paclitaxel, 5 μM diclofenac, 200 μM S-mephenytoin, 5 μM dextromethorphan, and 2 μM midazolam. NADP^+ was added after a 15 min preincubation of all other components at 37 °C. After a given incubation time (30 min), the reactions were terminated by addition of 60 μL ice-cold acetonitrile containing gemfibrozil and buspirone as internal standards. Incubation samples were stored at −80 °C until used in liquid chromatography-tandem mass spectrometry (LC-MS/MS) analysis. The mixture was centrifuged at 3,500 rpm for 5 min. The supernatant was mixed with equal volume of a 1:1 mixture of methanol and water and 20 μL of the final mixture was used for LC-MS/ MS analysis. […]
(§2) The CYP inhibition potential were evaluated by measuring the formation of one or more metabolites of the test substrates. […]

The target in the next data set is T2, CYP2D6 (Homo sapiens, UniProt P10635).
T2 construct: Pooled human liver microsomes (HLM, LOT 32556) were purchased from BD Gentest Corporation; tissue BD Gentest Corporation LOT 32556; host or cells: pooled human liver microsomes
T2 sequence (P10635 whole entry): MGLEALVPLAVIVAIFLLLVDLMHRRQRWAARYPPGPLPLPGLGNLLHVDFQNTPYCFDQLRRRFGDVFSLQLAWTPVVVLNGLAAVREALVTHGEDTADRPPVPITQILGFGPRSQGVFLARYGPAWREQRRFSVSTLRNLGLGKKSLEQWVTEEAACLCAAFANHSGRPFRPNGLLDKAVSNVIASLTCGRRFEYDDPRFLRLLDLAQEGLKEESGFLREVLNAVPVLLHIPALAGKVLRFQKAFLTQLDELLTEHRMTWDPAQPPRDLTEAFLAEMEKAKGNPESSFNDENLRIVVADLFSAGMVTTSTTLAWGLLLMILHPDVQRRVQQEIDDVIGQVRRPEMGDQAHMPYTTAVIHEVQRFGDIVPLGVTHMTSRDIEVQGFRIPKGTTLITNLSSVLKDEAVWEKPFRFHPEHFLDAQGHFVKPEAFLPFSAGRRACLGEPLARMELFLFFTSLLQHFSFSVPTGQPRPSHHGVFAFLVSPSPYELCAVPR
The data set is described as follows: CYP inhibition in human liver microsomes, substrate cocktail, LC-MS/MS (dextromethorphan). The data set is classed as in vitro ADME. The conditions noted are these: metabolite dextrorphan, read-out: IC50 for HLM, CYP2D6.
Excerpt: as §1, §2

In the next data set the target is T3, CYP2C7 (Rattus norvegicus, UniProt P05179).
T3 construct: Pooled rat liver microsomes were prepared from three male Sprague-Dawley rats; from tissue; host or cells: pooled liver microsomes of three male Sprague-Dawley rats, prepared at HD Biosciences Co
T3 sequence (P05179 1-490): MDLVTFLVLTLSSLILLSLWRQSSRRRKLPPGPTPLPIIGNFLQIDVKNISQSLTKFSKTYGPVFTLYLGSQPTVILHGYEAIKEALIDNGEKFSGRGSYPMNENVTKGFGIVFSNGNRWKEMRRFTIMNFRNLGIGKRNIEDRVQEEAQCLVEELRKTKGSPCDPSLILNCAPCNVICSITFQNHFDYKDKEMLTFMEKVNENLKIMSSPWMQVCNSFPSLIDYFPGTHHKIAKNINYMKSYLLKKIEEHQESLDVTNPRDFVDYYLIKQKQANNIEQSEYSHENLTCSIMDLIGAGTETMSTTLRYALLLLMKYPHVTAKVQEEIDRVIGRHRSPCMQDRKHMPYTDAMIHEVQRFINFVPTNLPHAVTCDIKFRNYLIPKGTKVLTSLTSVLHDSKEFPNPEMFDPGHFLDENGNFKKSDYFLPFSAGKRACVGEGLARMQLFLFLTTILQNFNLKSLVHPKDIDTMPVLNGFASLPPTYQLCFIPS
As to the kind of experiment: CYP inhibition in rat liver microsomes, substrate cocktail, LC-MS/MS (paclitaxel). The class given is in vitro ADME. The conditions noted are these: 95% CI in brackets, read-out: IC50 for RLM, CYP2C7 (table row CYP2C8).
Excerpt: as §1, §2

In data set [2] the target is T4, CYP1A2 (Rattus norvegicus, UniProt P04799).
T4 sequence (P04799 1-513): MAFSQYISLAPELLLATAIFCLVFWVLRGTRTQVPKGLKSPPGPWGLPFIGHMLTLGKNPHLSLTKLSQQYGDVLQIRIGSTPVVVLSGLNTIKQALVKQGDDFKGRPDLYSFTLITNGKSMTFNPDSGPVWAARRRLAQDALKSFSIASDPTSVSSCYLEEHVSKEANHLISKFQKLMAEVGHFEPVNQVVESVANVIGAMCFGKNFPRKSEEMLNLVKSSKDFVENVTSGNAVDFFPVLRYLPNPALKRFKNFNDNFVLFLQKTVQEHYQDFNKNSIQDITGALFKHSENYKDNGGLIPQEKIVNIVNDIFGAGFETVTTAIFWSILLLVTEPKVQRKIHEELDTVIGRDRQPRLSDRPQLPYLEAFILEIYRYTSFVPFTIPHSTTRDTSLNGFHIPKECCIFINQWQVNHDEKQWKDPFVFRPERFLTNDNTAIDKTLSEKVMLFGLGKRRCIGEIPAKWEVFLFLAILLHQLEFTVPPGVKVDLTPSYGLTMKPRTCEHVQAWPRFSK
The conditions noted are these: 30 mg/kg; cited from earlier work.

Take `O=C(O)[C@H]1O[C@@H](Oc2cc3oc(-c4ccc(O)cc4)cc(=O)c3c(O)c2O)[C@H](O)[C@@H](O)[C@@H]1O` [scutellarin, Scutellarin]: the IC50 at CYP1A2 [1] is over 100 µM; on CYP2D6, over 100 µM; on CYP2C7, 63.1 µM. Moreover, the “inhibition of CYP1A2 activity in whole animal studies” value on CYP1A2 [2] was “weakly inhibited”.

Usually IC50 stands for the concentration needed to halve the response being measured.
